Key:
[1] = tested on: primed human PSCs; test: Conversion of primed human PSCs to ICLCs (ICM marker expression, colony morphology); type: cell-based
Protocol: One day before initiation of conversion, primed human PSCs were washed with PBS once and dissociated into single cells and plated at a density of 1,000 to 1,500 cells/cm^2 on feeder in mTeSR1 or E8 medium supplemented with 10 μM Y27632. Twenty-four hours later, culture medium was switched to 4CL medium 1. The culture medium was refreshed with the same medium every 24 hours. Colonies became round and domed-shape in 24 to 48 hours. Cells were passaged every 3 to 4 days. For passaging, cells were dissociated into single cells using TrypLE: 0.5 mM EDTA (1:1) and plated at a density of 1,000 to 1,500 cells/cm^2 on feeder (feeders were seeded on Geltrex™/Matrigel™ pre-treated plate) (FIG. 1). The ICLCs induction and maintenance can be conducted under hypoxic condition (37° C., 5% CO2, 5% O2), or normoxic condition (37° C., 5% CO2, 21% O2) (FIG. 34), preferably hypoxia condition.
Using the same procedures of example 1, except plating cells on 1% (v/v) Geltrex™ in DMEM-F12 (cat #) coated plates instead of on feeder cells.
Primed human PSCs were cultured following the same procedures of example 1. One day before initiation of the conversion, primed human PSCs were dissociated into single cells and plated 60,000 cells/well in Aggrewell™800 plates using mTeSR1 or E8 medium supplemented with 10 μM Y27632. […]

[2] = tested on: primed human PSCs or ICLCs; test: Conversion of primed human PSCs or ICLCs to 8CLCs (8C marker expression); type: cell-based; settings: CHIR99021 included in e4CL, or IWR1 withdrawn from e4CL
Protocol: Primed human PSCs were cultured following the same procedures of example 1. One day before initiation of the conversion, primed human PSCs were dissociated into single cells and plated at 2,000 to 3,000 cells/cm^2 on feeder using mTeSR1 or E8 medium supplemented with 10 μM Y27632. Twenty-four hours later, culture medium was changed into e4CL medium, cells were cultured in incubator at 37° C., 5% CO2, hypoxic or normoxic condition. Medium was refreshed daily. Cells were passaged every 3 to 4 days. For passaging, cells were dissociated into single cells using TrypLE: 0.5 mM EDTA (1:1), plated at 2,000 to 3,000 cells/cm^2 on feeder coated plates. Generally, cells were converted to 8CLCs in approximately one week. One day before initiation of the conversion, ICLCs were dissociated into single cells and plated at 2,000 to 3,000 cells/cm^2 on feeders using 4CL medium. Twenty-four hours later, culture medium is changed into e4CL medium. Medium was refreshed daily. Cells were converted to 8CLCs in 3 to 5 days without passaging. ICLCs were cultured following the same procedures of example 1. One day before initiation of the conversion, ICLCs were dissociated into single cells and resuspended in 4CL medium at a density of 300,000 cells/ml. The cell suspension was added into flasks for suspension culture (Greiner Bio-One, 658190). […]

O=C1O[C@H]([C@@H](O)CO)C(O)=C1O [L-ascorbic acid]
expression levels of ICM specific genes such as DNMT3L, STELLA, DPPA5, KLF17 ([1]; final concentration of 40 to 70 μg/ml): potently increases

Cc1c[nH]c(-c2cnc(NCCNc3ccc(C#N)cn3)nc2-c2ccc(Cl)cc2Cl)n1 [CHIR99021]
ICLC formation ([1]; CHIR99021 included in 4CL, or IWR1 withdrawn from 4CL): inhibits formation of ICLC
8CLC formation [2]: inhibits formation of 8CLC
